Values after ≈ are worked out from the molar mass of the structure shown.
Key:
[1] = system: mouse allogenic MLR (BALB/c mouse spleen cells stimulated with C57BL/6 mouse spleen cells); test: mouse allogenic mixed lymphocyte reaction (MLR), 3H-thymidine uptake; format: cell-based
Description: The immunosuppressive activity of the compounds was assayed on the basis of mouse allogenic mixed lymphocyte reaction (hereinafter sometimes abbreviated as MLR). Mouse allogenic MRL was carried out using a mixed culture of BALB/c mouse (H-2^d) spleen cells as the responder cells and mitomycin C-treated C57BL/6 ([…]) mouse spleen cells as the stimulator cells in equal amounts.
The responder cells were prepared as follows:
The spleen was resected from 5- to 6-week-old BALB/c mice, and single cell suspension of spleen cells was prepared by using the RPMI1640 culture medium (containing 60 μg/ml of kanamycin sulfate, 2 mM of L-glutamine, 10 mM of N-2-hydroxyethylpiperazine-N'-2-ethanesulphonate (HEPES) and 0.1% sodium hydrogencarbonate) to which heat-inactivated fetal calf serum (hereinafter sometimes abbreviated as FCS) had been added to 5%. After hemolytic treatment, the cell suspension was adjusted to a concentration of 10^7 cells/ml with the RPMI1640 culture medium supplemented with 10^-4 M 2-mercapto-ethanol and 20% FCS, and was used as the responder cell suspension.
The stimulator cells were prepared as follows: The spleen was resected from 5- to 6-week-old male C57BL/6 mice, and a single cell suspension of spleen cells was prepared by using the RPMI1640 culture medium. After hemolytic treatment, the cells were treated with 40 μg/ml of mitomycin C at 37° C. for 60 minutes. After washing three times, the cell suspension was adjusted to a concentration of 10^7 cells/ml with the RPMI1640 culture medium supplemented with 10^-4 M 2-mercapto-ethanol and 20% FCS, and was used as the stimulator cell suspension.
The blastogenesis of lymphocytes was assayed using ^3 H-thymidine uptake as an index. That is, after termination of culture, 18.5 KBq/well of ^3 H-thymidine was added thereto and the suspension was cultured for 4 hours. Cells were harvested by a cell-harvester, and the radioactivity incorporated into the cells was determined by a liquid scintillation counter, which was used as an index of blastogenesis of lymphocytes in the mouse allogenic MLR. The suppression of the mouse allogenic MLR was evaluated by calculating the percent suppression by the following formula.
The test substance dissolved in methanol was diluted with the RPMI1640 culture medium and put to use.

MOLT4 = test: cytotoxicity to cultured tumor cell line MOLT4; format: cell-based, human
Description: (§1) Cytotoxicity to various human tumor cell lines was examined as follows:
(§2) Cells of human cell lines, K562, MOLT4, U937 and HL60 were respectively suspended to the concentration of 4×10^5 cells/ml in the RPMI1640 culture medium supplemented with 20% FCS. Fifty μl of each suspension was added to each well of a 96-well microtest plate to which 50 μl of the test solution had been added. After culturing the suspension at 37° C. in an atmosphere of 5% carbon dioxide for 72 hours, the absorbancy at 570 nm was measured in the same way as with the colorimetry using MTT in Experiment Example 1, and the percent suppression was calculated by the following formula, which was used as an index of cytotoxicity.

[2] = cytotoxicity to cultured tumor cell line MOLT4; format: cell-based, human; conditions: human, molt4 cells, read-out: Suppression
Description: as §1, §2

K562 = test: cytotoxicity to cultured tumor cell line K562
Description: as §1, §2

[3] = cytotoxicity to cultured tumor cell line K562; conditions: human, k562 cells, Suppression
Description: as §1, §2

U937 = test: cytotoxicity to cultured tumor cell line U937; format: cell-based, human
Description: as §1, §2

[4] = cytotoxicity to cultured tumor cell line U937; format: cell-based, human; conditions: human, u937 cells; 0.1 μg/ml; read-out: Suppression
Description: as §1, §2

[5] = cytotoxicity to cultured tumor cell line HL60; conditions: human, hl60 cells, Suppression
Description: as §1, §2

HL60 = test: cytotoxicity to cultured tumor cell line HL60
Description: as §1, §2

Which 3H-thymidine uptake ([1]; 0.0001 μg/ml, Table 1A) does the source give for CCCCCCC(CCCCCC/C=C/C[C@@H](O)[C@H](O)[C@@](N)(CO)C(=O)O)=NO [Example 4] here?
Its 3H-thymidine uptake is 16905 cpm.

And the 3H-thymidine uptake ([1]; 0.001 μg/ml, Table 1A)?
The 3H-thymidine uptake was 15970 cpm.

What about the 3H-thymidine uptake ([1]; 0.01 μg/ml, Table 1A) of the same compound?
Its 3H-thymidine uptake is 15399 cpm.

And the 3H-thymidine uptake ([1]; 0.1 μg/ml, Table 1A)?
Its 3H-thymidine uptake is 1637 cpm.

And the 3H-thymidine uptake ([1]; 1 μg/ml, Table 1A)?
Its 3H-thymidine uptake is 1477 cpm.

What about the inhibition at 0.0001 µg/mL ([1]; Mus musculus, Lymphocyte, 0.0001 μg/ml, Table 1A, read-out: Suppression) of the same compound?
Its inhibition at 0.0001 µg/mL is 9.1%.

What about the inhibition at 0.001 µg/mL ([1]; Mus musculus, Lymphocyte, 0.001 μg/ml, Table 1A, read-out: Suppression) of the same compound?
Its inhibition at 0.001 µg/mL is 14.7%.

And the inhibition at 0.01 µg/mL ([1]; Mus musculus, Lymphocyte, 0.01 μg/ml, Table 1A, read-out: Suppression)?
The inhibition at 0.01 µg/mL was 18.1%.

And the inhibition at 0.1 µg/mL ([1]; Mus musculus, Lymphocyte, 0.1 μg/ml, Table 1A, read-out: Suppression)?
Its inhibition at 0.1 µg/mL is 99.9%.

And the inhibition at 1 µg/mL ([1]; Mus musculus, Lymphocyte, 1 μg/ml, Table 1A, read-out: Suppression)?
The inhibition at 1 µg/mL was 100%.

What about the IC50 ([1]; Mus musculus, Lymphocyte, read-out: 50%-inhibition concentration (IC50) in mouse allogenic MLR) of the same compound?
The IC50 was 0.025 µg/mL (≈ 0.06 µM).

And the Absorbancy (MOLT4; 0.1 μg/ml)?
The Absorbancy was 1.026 ± 0.026.

And the Absorbancy (MOLT4; 1 μg/ml)?
Its Absorbancy is 1.037 ± 0.027.

And the Absorbancy (MOLT4; 10 μg/ml)?
The Absorbancy was 1.014 ± 0.055.

What about the cytotoxicity at 72 h ([2]; 0.1 μg/ml) of the same compound?
The cytotoxicity at 72 h was 11%.

What about the cytotoxicity at 72 h ([2]; 1 μg/ml) of the same compound?
The cytotoxicity at 72 h was 10.1%.

What about the cytotoxicity at 72 h ([2]; 10 μg/ml) of the same compound?
The cytotoxicity at 72 h was 12.1%.

What about the Absorbancy (K562; 0.1 μg/ml) of the same compound?
The Absorbancy was 1.145 ± 0.038.

And the Absorbancy (K562; 1 μg/ml)?
The Absorbancy was 1.129 ± 0.021.

And the Absorbancy (K562; 10 μg/ml)?
Its Absorbancy is 1.148 ± 0.032.

And the cytotoxicity at 72 h ([3]; 0.1 μg/ml)?
Its cytotoxicity at 72 h is 0%.

What about the cytotoxicity at 72 h ([3]; 1 μg/ml) of the same compound?
Its cytotoxicity at 72 h is 0.6%.

What about the cytotoxicity at 72 h ([3]; 10 μg/ml) of the same compound?
The cytotoxicity at 72 h was 0%.

What about the Absorbancy (U937; 0.1 μg/ml) of the same compound?
The Absorbancy was 0.765 ± 0.033.

And the Absorbancy (U937; 1 μg/ml)?
Its Absorbancy is 0.744 ± 0.017.

And the Absorbancy (U937; 10 μg/ml)?
The Absorbancy was 0.750 ± 0.048.

And the cytotoxicity at 72 h [4]?
The cytotoxicity at 72 h was 0%.

What about the cytotoxicity at 72 h ([5]; 0.1 μg/ml) of the same compound?
Its cytotoxicity at 72 h is 6%.

And the cytotoxicity at 72 h ([5]; 1 μg/ml)?
The cytotoxicity at 72 h was 0%.

And the cytotoxicity at 72 h ([5]; 10 μg/ml)?
Its cytotoxicity at 72 h is 8.2%.

What about the Absorbancy (HL60; 0.1 μg/ml) of the same compound?
Its Absorbancy is 1.401 ± 0.028.

What about the Absorbancy (HL60; 1 μg/ml) of the same compound?
Its Absorbancy is 1.493 ± 0.031.

And the Absorbancy (HL60; 10 μg/ml)?
Its Absorbancy is 1.368 ± 0.087.

From patent US5068247A, “2-aminopentanoic acid compounds and their use as immunosuppressants” (priority 1989, dated 1991)
